According to ChEMBL document CHEMBL5500393, “Discovery and Optimization of Novel SaFabI Inhibitors as Specific Therapeutic Agents for MRSA Infection” (J Med Chem, 2024):
Values after ≈ are worked out from the molar mass of the structure shown. Active and inactive are the calls of the source. The calls are words filed in the database; no cut-off is given here.

Key:
[1] = test system: Staphylococcus aureus; assay: Antimicrobial activity against […] Staphylococcus aureus ATCC33591 assessed as reduction in RNA content measured after 4 hrs by microplate reader based analysis; format: functional
[2] = biological target: T1, Enoyl-[acyl-carrier-protein] reductase [NADPH] FabI (Staphylococcus aureus, UniProt Q6GI75); assay: Inhibition of N-terminal his 6 tagged Staphylococcus aureus Fabi (1 to […] residues) expressed in Escherichia coli BL21 incubated for 30 mins in presence of NADPH by fluorescence based microplate reader analysis
T1 sequence (Q6GI75 whole entry): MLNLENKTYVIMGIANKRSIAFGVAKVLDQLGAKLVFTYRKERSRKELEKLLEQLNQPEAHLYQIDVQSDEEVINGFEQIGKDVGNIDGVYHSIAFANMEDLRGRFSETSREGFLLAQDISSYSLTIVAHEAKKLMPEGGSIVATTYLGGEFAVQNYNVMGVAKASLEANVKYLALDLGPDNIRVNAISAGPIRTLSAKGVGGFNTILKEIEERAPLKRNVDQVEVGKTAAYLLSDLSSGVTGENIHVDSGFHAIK

[3] = test system: Staphylococcus aureus; assay: Antimicrobial activity against […] Staphylococcus aureus ATCC33591 measured after 24 hrs by CLSI protocol based microdilution method; format: functional
[4] = test system: Staphylococcus aureus; assay: Antimicrobial activity against […] Staphylococcus aureus ATCC43300 measured after 24 hrs by CLSI protocol based microdilution method; format: functional
[5] = test system: Staphylococcus aureus; assay: Antimicrobial activity against […] Staphylococcus aureus USA300 measured after 24 hrs by CLSI protocol based microdilution method; format: functional
[6] = test system: Staphylococcus aureus; assay: Antimicrobial activity against […] Staphylococcus aureus NRS271 measured after 24 hrs by CLSI protocol based microdilution method; format: functional
[7] = test system: Staphylococcus aureus; assay: Antimicrobial activity against methicillin-susceptible Staphylococcus aureus ATCC29213 measured after 24 hrs by CLSI protocol based microdilution method; format: functional
[8] = test system: Staphylococcus aureus; assay: Antimicrobial activity against methicillin-susceptible Staphylococcus aureus ATCC25923 measured after 24 hrs by CLSI protocol based microdilution method; format: functional
[9] = test system: Enterococcus faecium; assay: Antimicrobial activity against Enterococcus faecium ATCC19434 measured after 24 hrs by CLSI protocol based microdilution method; format: functional
[10] = test system: Enterococcus faecalis; assay: Antimicrobial activity against Enterococcus faecalis ATCC29212 measured after 24 hrs by CLSI protocol based microdilution method; format: functional
[11] = test system: Pseudomonas aeruginosa; assay: Antimicrobial activity against Pseudomonas aeruginosa PAO1 measured after 24 hrs by CLSI protocol based microdilution method; format: functional
[12] = test system: Escherichia coli; assay: Antimicrobial activity against Escherichia coli ATCC25922 measured after 24 hrs by CLSI protocol based microdilution method; format: functional
[13] = test system: Acinetobacter baumannii; assay: Antimicrobial activity against Acinetobacter baumannii ATCC19606 measured after 24 hrs by CLSI protocol based microdilution method; format: functional
[14] = test system: Candida albicans; assay: Antimicrobial activity against Candida albicans SC5314 measured after 48 hrs by CLSI protocol based microdilution method; format: functional
[15] = test system: Staphylococcus aureus; assay: Bactericidal activity against […] Staphylococcus aureus ATCC33591 assessed as log reduction in bacterial count measured within 24 hrs by time-kill assay; format: functional
[16] = test system: Staphylococcus aureus; assay: Antimicrobial activity against […] Staphylococcus aureus ATCC33591 assessed as reduction in lipid content measured after 4 hrs by microplate reader based analysis; format: functional
[17] = test system: Staphylococcus aureus; assay: Antimicrobial activity against wild type Staphylococcus aureus RN4220 measured after 24 hrs by CLSI protocol based microdilution method; format: functional
[18] = test system: Staphylococcus aureus; assay: Antimicrobial activity against Staphylococcus aureus RN4220 harbouring pCM-sfgfp measured after 24 hrs by CLSI protocol based microdilution method; format: functional
[19] = test system: Staphylococcus aureus; assay: Antimicrobial activity against Staphylococcus aureus RN4220 harbouring pCM-sfgfp::fabi (promoter fabi) measured after 24 hrs by CLSI protocol based microdilution method; format: functional
[20] = test system: Staphylococcus aureus; assay: Antimicrobial activity against Staphylococcus aureus RN4220 harbouring pCM-sfgfp::fabi (promoter-sarA) measured after 24 hrs by CLSI protocol based microdilution method; format: functional
[21] = Metabolic stability in human liver microsomes assessed as half life at 1 uM measured upto 120 mins in presence of NADPH by LC-MS analysis; format: ADME, Microsome
[22] = Metabolic stability in human liver microsomes assessed as intrinsic clearance at 1 uM measured upto 120 mins in presence of NADPH by LC-MS analysis; format: ADME, Microsome; conditions: read-out: CLH
[23] = Metabolic stability in mouse liver microsomes assessed as half life at 1 uM measured upto 120 mins in presence of NADPH by LC-MS analysis; format: ADME, Microsome
[24] = Metabolic stability in mouse liver microsomes assessed as intrinsic clearance at 1 uM measured upto 120 mins in presence of NADPH by LC-MS analysis; format: ADME, Microsome; conditions: read-out: CLH
[25] = Cmax in female Sprague-Dawley rat at 5 mg/kg, iv measured upto 24 hrs by LC-MS analysis; format: ADME, organism-based; conditions: in vivo
[26] = Half life in female Sprague-Dawley rat at 5 mg/kg, iv measured upto 24 hrs by LC-MS analysis; format: ADME, organism-based; conditions: in vivo
[27] = Clearance in female Sprague-Dawley rat at 5 mg/kg, iv measured upto 24 hrs by LC-MS analysis; format: ADME, organism-based; conditions: in vivo
[28] = AUC (0 to t) in female Sprague-Dawley rat at 5 mg/kg, iv measured upto 24 hrs by LC-MS analysis; format: ADME, organism-based; conditions: in vivo
[29] = Cmax in female Sprague-Dawley rat at 20 mg/kg, po measured upto 24 hrs by LC-MS analysis; format: ADME, organism-based; conditions: in vivo
[30] = Tmax in female Sprague-Dawley rat at 20 mg/kg, po measured upto 24 hrs by LC-MS analysis; format: ADME, organism-based; conditions: in vivo
[31] = Half life in female Sprague-Dawley rat at 20 mg/kg, po measured upto 24 hrs by LC-MS analysis; format: ADME, organism-based; conditions: in vivo
[32] = Clearance in female Sprague-Dawley rat at 20 mg/kg, po measured upto 24 hrs by LC-MS analysis; format: ADME, organism-based; conditions: in vivo
[33] = AUC (0 to t) in female Sprague-Dawley rat at 20 mg/kg, po measured upto 24 hrs by LC-MS analysis; format: ADME, organism-based; conditions: in vivo
[34] = Oral bioavailability in female Sprague-Dawley rat at 20 mg/kg measured upto 24 hrs by LC-MS analysis; format: ADME, organism-based; conditions: in vivo
[35] = test system: Staphylococcus aureus; assay: In vivo antibacterial activity against methicilin-resistant Staphylococcus aureus ATCC33591 infected in BALB/c mouse skin infection model assessed as decrease in lesion size at 5 mg/kg administered daily for 4 days (reference value: 43.4 mm2); format: functional; conditions: time 4 day
[36] = test system: Staphylococcus aureus; assay: In vivo antibacterial activity against methicilin-resistant Staphylococcus aureus ATCC33591 infected in BALB/c mouse skin infection model assessed as reduction in bacterial load at 5 mg/kg administered daily for 4 days; format: functional; conditions: time 4 day
[37] = test system: Staphylococcus aureus; assay: In vivo antibacterial activity against methicilin-resistant Staphylococcus aureus ATCC33591 infected in BALB/c mouse skin infection model assessed as reduction in area of injury at 5 mg/kg administered daily for 4 days by H and E staining based analysis; format: functional, organism-based; conditions: time 4.0 day
[38] = test system: Staphylococcus aureus; assay: In vivo antibacterial activity against methicilin-resistant Staphylococcus aureus ATCC33591 infected in BALB/c mouse skin infection model assessed as reduction in number of inflammatory cells at 5 mg/kg administered daily for 4 days by H and E staining based analysis; format: functional, organism-based; conditions: time 4.0 day
[39] = test system: Staphylococcus aureus; assay: In vivo antibacterial activity against methicilin-resistant Staphylococcus aureus ATCC33591 infected in BALB/c mouse skin infection model assessed as restoration of cell morphology at 5 mg/kg administered daily for 4 days by H and E staining based analysis; format: functional, organism-based; conditions: time 4.0 day
[40] = test system: Staphylococcus aureus; assay: In vivo antibacterial activity against methicilin-resistant Staphylococcus aureus ATCC33591 infected in BALB/c mouse skin infection model assessed as reduction in skin lesions at 5 mg/kg administered daily for 4 days (reference value: 50.1 mm2); format: functional; conditions: time 4 day
[41] = test system: Staphylococcus aureus; assay: In vivo antibacterial activity against methicilin-resistant Staphylococcus aureus ATCC33591 infected in BALB/c mouse skin infection model assessed as log reduction in bacterial count at 5 mg/kg administered daily for 4 days; format: functional; conditions: time 4 day
[42] = test system: Staphylococcus aureus; assay: In vivo antibacterial activity against methicilin-resistant Staphylococcus aureus ATCC33591 infected in BALB/c mouse skin infection model assessed as normal morphology at 5 mg/kg administered daily for 4 days by H and E staining based analysis; format: functional, organism-based; conditions: time 4.0 day
[43] = test system: Staphylococcus aureus; assay: In vivo antibacterial activity against methicilin-resistant Staphylococcus aureus ATCC33591 infected in BALB/c mouse skin infection model assessed as normal skin structure at 5 mg/kg administered daily for 4 days by H and E staining based analysis; format: functional, organism-based; conditions: time 4.0 day
[44] = test system: Staphylococcus aureus; assay: Antimicrobial activity against […] Staphylococcus aureus ATCC33591 assessed as frequency of spontaneous resistance at 4 times MIC measured after 48 hrs by; format: functional
[45] = test system: Staphylococcus aureus; assay: Antimicrobial activity against […] Staphylococcus aureus ATCC33591 assessed as frequency of spontaneous resistance at 8 times MIC measured after 48 hrs by; format: functional
[46] = test system: Staphylococcus aureus; assay: Antimicrobial activity against […] Staphylococcus aureus ATCC33591 assessed as frequency of spontaneous resistance at 16 times MIC measured after 48 hrs by; format: functional

CO[C@H]1/C=C/O[C@@]2(C)Oc3c(C)c(O)c4c(O)c(c(/C=N/N5CCN(C)CC5)c(O)c4c3C2=O)NC(=O)/C(C)=C\C=C\[C@H](C)[C@H](O)[C@@H](C)[C@@H](O)[C@@H](C)[C@H](OC(C)=O)[C@@H]1C [RIFAMPIN]
MIC [1]: 0.016 µg/mL (≈ 0.0194 µM)

Cc1c(CN(C)C(=O)/C=C/c2cnc3c(c2)CCC(=O)N3)oc2ccccc12 [AFN-1252]
IC50 [2]: 42.3 nM | MIC [3]: 0.008 µg/mL (≈ 0.0213 µM) | MIC [4]: 0.016 µg/mL (≈ 0.0426 µM) | MIC [5]: 0.016 µg/mL (≈ 0.0426 µM) | MIC [6]: 0.016 µg/mL (≈ 0.0426 µM) | MIC [7]: 0.008 µg/mL (≈ 0.0213 µM) | MIC [8]: 0.008 µg/mL (≈ 0.0213 µM) | MIC [9]: > 32 µg/mL | MIC [10]: > 32 µg/mL | MIC [11]: > 32 µg/mL | MIC [12]: > 32 µg/mL | MIC [13]: > 32 µg/mL | MIC [14]: > 32 µg/mL | log(activity) [15]: 5 | MIC [16]: 0.008 µg/mL (≈ 0.0213 µM) | MIC [17]: 0.016 µg/mL (≈ 0.0426 µM) | MIC [18]: 0.016 µg/mL (≈ 0.0426 µM) | MIC [19]: 0.25 µg/mL (≈ 0.666 µM) | MIC [20]: 1 µg/mL (≈ 2.66 µM) | half-life at 1 µM [21]: 34.5 min | CLint scaled at 1 µM [22]: 50.4 mL/min/kg | half-life at 1 µM [23]: 17.1 min | CLint scaled at 1 µM [24]: 319 mL/min/kg | Cmax [25]: 1810 ng/mL | t1/2 [26]: 402 min | clearance [27]: 30 mL/min/kg | AUCt [28]: 2713.1 ng·h/mL | Cmax [29]: 711 ng/mL | Tmax [30]: 60 min | t1/2 [31]: 432 min | CL/F [32]: 71.7 mL/min/kg | AUCt [33]: 4414.1 ng·h/mL | bioavailability [34]: 40.7% | Activity [35]: 10.4 mm2 | log(activity) [36]: -7.1 | Activity [37]: Active | Activity [38]: Active | Activity [39]: Active | Activity [40]: 13.7 mm2 | log(activity) [41]: 7.8 | Activity [42]: Active | Activity [43]: Active | Activity [44]: 1.6 10^-9No_unit | Activity [45]: 5.9 10^-10No_unit | Activity [46]: <2.6 10^-10No_unit
